Measurements published in patent publication US20200377568A1, “Novel IL-4-/IL-13-derived peptide compounds for the treatment or prevention of neurodegenerative or neuroinflammatory diseases” (Universitätsmedizin der Johannes Gutenberg-Universität Mainz, priority 2018, published 2020).
Entries after “also recorded” stand apart in the source; their conditions may differ.

Assays:
[1] = test system: experimental autoimmune encephalomyelitis (EAE) mice; experiment: EAE clinical score, treatment during the chronic phase; assay type: in vivo, mouse; settings: chronic phase of EAE, vs PBS
Procedure: To test whether Link4 has similar effects to IL-4 in vivo, two pilot experiments were performed. In the first experiment (FIG. 3A), B16 mice were subjected to EAE and treated with IL-4, Link4, Ph8 and PBS (n=6-7 animals per group) via lumbar intrathecal injection directly into the cerebrospinal fluid (CSF) every other day for 14 days, in the chronic phase of the disease starting from day 5 after the first disease peak (grey bar). […] For better clinical translation, the treatment was then switched to nasal treatment with IL-4 and Link4 (FIG. 3B; 2 pooled experiments, n=15-16 per group). Nasally applied treatments can enter the brain through the cribriform plate, where olfactory nerve fibers cross through the bone, resulting in a connection between the roof of the nasal cavity and the brain (C. F. Xiao, F. J. Davis, B. C. Chauhan, K. L. Viola, P. N. Lacor, P. T. Velasco, W. L. Klein, and N. B. Chauhan, Brain transit and ameliorative effects of intranasally delivered anti-amyloid-beta oligomer antibody in 5XFAD mice. J Alzheimers Dis 35, 777-788 (2013)). Again, both IL-4 and Link4 treatments were beneficial.
For active EAE, female 9-10-weeks-old C57BI6 mice were immunized as previously described (M. Paterka, J. O. Voss, J. Werr, E. Reuter, S. Franck, T. Leuenberger, J. Herz, H. Radbruch, T. Bopp, V. Siffrin, and F. Zipp, Dendritic cells tip the balance towards induction of regulatory T cells upon priming in experimental autoimmune encephalomyelitis. J Autoimmun 67, 108-114 (2017)) by subcutaneous injection of 200 μg myelin oligodendrocyte […] 35-55 (MOG35-55) mixed with complete Freund adjuvant (CFA). Following the MOG35-55 immunization 400 ng pertussis toxin (PTX) was administered intraperitoneally at the day of immunizaton and after 24 h. Clinical signs were scored using the following parameters:
Treatment with rIL-4 (1 μg, Peprotech), Ph8 (1 μg, custom synthesized, Schafer N), Link4 (1 μg, custom synthesized, Schafer N) or vehicle (PBS) was performed during the chronic phase of the disease models by lumbar intrathecal injection (R. Lu and A. Schmidtko, Direct intrathecal drug delivery in mice for detecting in vivo effects of cGMP on pain processing. Methods Mol Biol 1020, 215-221 (2013)) or nasal application of IL-4 and Link4 was performed according to published procedures (C. F. Xiao, F. J. Davis, B. C. Chauhan, K. L. Viola, P. N. Lacor, P. T. Velasco, W. L. Klein, and N. B. Chauhan, Brain transit and ameliorative effects of intranasally delivered anti-amyloid-beta oligomer antibody in SXFAD mice. J Alzheimers Dis 35, 777-788 (2013)). Mice were pre-trained to avoid stress and held at a 45 degree angle to apply IL-4 solution (1 μg, Peprotech) to the nostrils using a pipette tip.

CD4+ T cells = experiment: TH2 differentiation of naive T cells; assay type: cell-based, mouse; settings: different concentrations, FIG. 4B
Procedure: A-B: Effects of incubation with IL-4 and different concentrations of Link4 and Link13 on the differentiation of A: CD11b^+ bone marrow-derived macrophages (BMDMs) into F80^+CD206^+ cells, and B: CD4^+ T cells into Gata3^+ cells. C-D: FACS results for different populations of T cells and CD11b^+MHCII^+ monocytes/macrophages/microglia of immune cells isolated from C: spleen and D: central nervous system (CNS) of EAE mice treated with PBS, IL-4 or Link4.
In order to investigate whether Link4 and Link13 are able to modulate immune cells, in vitro assays were performed on bone marrow-derived macrophages (BDMBs) and on naïve T cells.
For the isolation of T lymphocytes 5-8 week old C57BL/6 mice were sacrificed by cervical dislocation and the spleens and lymph nodes (LN) were isolated and rubbed trough a 100 μm cell strainer into a 50 ml tube with washing medium (5% FCS, 1% P/S,1% HEPES in PBS). After washing, the cells were centrifuged for 5 min at 550 g at 4° C. To remove the red blood cells the […] was re-suspended in lysis buffer followed by centrifugation (5 min, 550 g, 4° C.). The cells were resuspended in MACS buffer and magnetic lymphocyte sorting was performed on ice, using the MidiMACS and QuadroMACS Seperators. A CD4 untouched and CD8 touched cell sort was performed a washing step in ml MACS buffer (5 min, 550 g, 4° C.). Cells were incubated with CD4 T cell biotin antibody cocktail (Miltenyi Biotec) in MACS buffer for 5 min at 4° C. Subsequently, anti-biotin microbeads and CD8 microbeads in MACS buffer was added. CD8 microbeads were added to reduce the possible contamination of CD8^+ lymphocytes. After 10 min of incubation at 4° C. the cells were washed again and resuspended in MACS buffer. MACS columns were pre equilibrated and topped with pre-separation filters (30 μm). A maximum of 300×10^6 cells were added to each column followed by 3 consecutive washing steps with MACS buffer. […] The purity of the magnetic cells sorts was assessed by comparing pre- and post-sort samples by flow cytometry. […]

Sequence: RARSEIIGIGSKSIMQMDY (listed as Mus musculus) [Link4]
- clinical score ([1]; lumbar intrathecal injection, 1 μg every other day for 14 days): significant improvement in the clinical score; also recorded: significant amelioration of the clinical score
- clinical score ([1]; lumbar intrathecal injection, 1 μg every other day for 14 days, listed as mouse Link4): reducing disease symptoms
- clinical score ([1]; nasal application): significant improvement in the clinical score; also recorded: beneficial
- differentiation of CD4+ T cells into Gata3+ cells (CD4+ T cells): did not take place
